Like-named read-outs stand apart in the source and are kept apart here.
How the values were obtained:
[1] = system: quinone reductase (QR), Hepa 1c1c7 cells; experiment: Quinone reductase (QR) induction in Hepa 1c1c7 cells; assay type: cell-based, murine; conditions: for CI, chemoprevention index (IC50/CD): 2880 min
Text: This test was used because the specific activity of QR rises concomitantly with other phase II enzymes in many animal tissues in response to various chemopreventive agents. The study included natural and synthetic B-ring substituted flavones, as well as biosynthetic precursor chalcones and flavanones.
Determination of Quinone Reductase Activity in Cell Cultures. To determine the potency of inducers, Hepa 1c1c7 murine hepatoma cells as described in the Gerhauser publication were placed in 96-well plates at a density of 1×10^4 cells/ml in 200 μl of medium. After a preincubation period of 24 hr, the media were decanted and 190 μl fresh media were added to each well. Ten (10) μl test agents dissolved in 10% DMSO (final concentration of DMSO is 0.5%) with a serial 2-fold dilutions were introduced to each well, and the plates were incubated for an additional 48 hours. Specific QR activity was determined by measuring the NADPH-dependent menadiol-mediated reduction of 3-(4, 5-dimethylthiazo-2-yl)-2,5-diphenyltetrazolium bromide to blue formazan formed per mg protein per minute. Protein was determined in an identical set of test plates by staining with crystal violet. Hepa 1c1c7 cells retain many characteristics of normal issues, particularly the capacity for carcinogen activation and metabolism. They are amenable to precise control of environmental, nutritional, and hormonal factors. […] Induction of QR activity was calculated by comparing the QR specific activity of agent-treated cells with that of solvent-treated cells, and a plot of ratio was generated. CD represents the concentration required to double QR induction. Chemopreventive index (CI) is an indexing value generated by comparing CD with IC50 (concentration for 50% inhibition of cell viability) values.
Induction of Quinone Reductase in Hepa 1c1c7 Cells. […] Modification of the B-ring of chalcones, flavanones, and flavones was hypothesized to induce torsion of the B-ring, and, therefor, simulate out-of-plane distortions characteristic of polycyclic aromatic hydrocarbons, such as DMBA. Induction of QR activity was calculated by comparing the QR specific activity of agent-treated cells with the QR specific activity of solvent-treated cells, and a plot of ratios was generated. CD represents the concentration required for a double fold of induction. CI (Chemopreventive Index) is a value obtained by comparing CD with IC50 (concentration for 50% inhibition of cell viability in […]).

Hepa 1c1c7 cells = experiment: Hepa 1c1c7 cell viability (cytotoxicity); assay type: cell-based, murine; conditions: Mus musculus
cytochrome P4501A1 = target: T1, cytochrome P4501A1 (Rattus norvegicus, UniProt P00185); experiment: biochemical
T1 sequence (P00185 1-524): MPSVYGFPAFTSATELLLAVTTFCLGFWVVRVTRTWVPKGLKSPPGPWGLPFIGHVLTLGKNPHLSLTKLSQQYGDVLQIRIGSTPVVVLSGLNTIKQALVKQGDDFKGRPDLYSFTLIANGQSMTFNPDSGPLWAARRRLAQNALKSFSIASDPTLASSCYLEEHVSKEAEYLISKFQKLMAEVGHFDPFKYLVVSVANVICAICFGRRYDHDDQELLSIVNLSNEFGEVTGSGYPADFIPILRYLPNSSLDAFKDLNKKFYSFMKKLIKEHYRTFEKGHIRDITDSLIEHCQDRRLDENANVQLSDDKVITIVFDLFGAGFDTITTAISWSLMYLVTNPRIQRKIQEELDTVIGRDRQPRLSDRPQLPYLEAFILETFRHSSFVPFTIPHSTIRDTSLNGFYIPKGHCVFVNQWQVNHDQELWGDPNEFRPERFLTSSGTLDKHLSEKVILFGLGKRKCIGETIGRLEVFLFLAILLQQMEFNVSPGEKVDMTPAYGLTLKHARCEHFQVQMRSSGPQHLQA
Description: Inhibition of DMBA-induced Cytochrome P4501A1 Activity. Female Sprague Dawley rats (43 days of age) were treated with DMBA (i.g.), and liver microsomes were isolated through differential centrifugation. Cytochrome P4501A1 activity was monitored by assessing EROD activity. Briefly, 200 μl of microsomal protein (2 mg/ml) were added to a reaction mixture containing 640 μl of 0.05 M Tris-HCl buffer (pH 7.5), 100 μl of BSA (10 mg/ml in Tris buffer), 20 μl of 0.25 M MgCl2, 40 μl of cofactor solution (0.3282 g of NADP and 1.417 g of glucose 6-phosphate in 40 ml of 1.15% KCl), 2.5 units of glucose 6-phosphate dehydrogenase, 10 μl of substrate (1 mg of ethoxyresorufin in 10 ml of methanol) and 10 μl of various concentrations of 4'-BF in DMSO (α-naphthoflavone as positive control; DMSO as negative control). After incubating at 37° C. for 4 min, the reactions were terminated by the addition of 2 ml of methanol. Samples were then centrifuged for 20 min at 2,000×g. and 200 μl of the supernatant fractions were transferred to 96-well plates and read on a spectrofluorimeter (500 nm excitation and 585 nm emission). Assays were conducted in triplicate and the percent of inhibition was calculated as: [1-(sample A-blank)/(DMSO A-blank)]×100.

[2] = Mus musculus, Hepa-1c1c7, 48 h, Hepa 1c1c7 cells, 48 h, read-out: CD, concentration to double the specific activity of QR
[3] = Hepa-1c1c7, Hepa 1c1c7 cells, read-out: IC50, concentration for 50% inhibition of cell viability
[4] = Hepa 1c1c7 cells, 48 h, read-out: CD, concentration to double the specific activity of QR
[5] = Mus musculus, Hepa-1c1c7, 48 h, read-out: CD, concentration to double the specific activity of QR, Hepa 1c1c7 cells, 48 h
[6] = Hepa-1c1c7, read-out: IC50, concentration for 50% inhibition of cell viability

| SMILES | Cq ([1]; Hepa 1c1c7 cells) | CI, chemoprevention index (IC50/CD) [1] | EC (2-fold) [1, 2] | IC50 (Hepa 1c1c7 cells; [3]) | EC (2-fold) [1, 4] | EC (2-fold) [1, 5] | IC50 (Hepa 1c1c7 cells; [6]) | IC50 (cytochrome P4501A1) | EC (2-fold) ([1]; Hepa 1c1c7 cells, 48 h, listed as 3'-chloroflavone, read-out: CD, concentration to double the specific activity of QR) |
| --- | --- | --- | --- | --- | --- | --- | --- | --- | --- |
| O=C(/C=C/c1cccc(C(F)(F)F)c1)c1ccccc1O [2'-Hydroxy-3-trifluoromethylchalcone] | 0.55 µM | > 23 | < 0.55 µM | 12.8 µM | – | – | – | – | – |
| O=C(/C=C/c1cccc(Br)c1)c1ccccc1O [3-Bromo-2'-hydroxychalcone] | 8.2 µM | 16 | 1.3 µM | 21 µM | – | – | – | – | – |
| O=c1cc(-c2ccccc2F)oc2ccccc12 [2'-Fluoroflavone] | 10 µM | 104 | 0.8 µM | > 83 µM | 0.80 µM | – | – | – | – |
| O=C(/C=C/c1ccc(C(F)(F)F)cc1)c1ccccc1O [2'-Hydroxy-4-trifluoromethylchalcone] | 1 µM | > 100 | < 0.55 µM | 55 µM | – | – | – | – | – |
| COc1ccccc1-c1cc(=O)c2ccccc2o1 [2'-methoxyflavone] | – | – | 0.01 to 1 µM | – | – | – | – | – | – |
| O=c1cc(-c2cccc(Br)c2)oc2ccccc12 [3'-Bromoflavone] | 4.4 µM | 32 | 0.1 µM | 3.2 µM | – | – | – | – | – |
| O=c1cc(-c2cccc(F)c2)oc2ccccc12 [3'-Fluoroflavone] | 1.24 µM | 63 | 0.67 µM | 42 µM | – | – | – | – | – |
| O=C(/C=C/c1ccc(Br)cc1)c1ccccc1O [4-Bromo-2'-hydroxychalcone] | 66 µM | 4 | – | – | – | 18 µM | 66 µM | – | – |
| O=C(/C=C/c1ccccc1[N+](=O)[O-])c1ccccc1O [2'-Hydroxy-2-nitrochalcone] | 3.6 µM | 37 | 0.3 µM | 11 µM | – | – | – | – | – |
| O=C(/C=C/c1ccccc1Br)c1ccccc1O [2-Bromo-2'-hydroxychalcone] | 2.0 µM | 21 | – | – | – | 0.53 µM | 11 µM | – | – |
| O=c1cc(-c2ccccc2)oc2ccccc12 [Flavone] | 8.3 µM | 42 | 2.5 µM | 106 µM | – | – | – | – | – |
| O=c1cc(-c2ccc(Cl)cc2)oc2ccccc12 [4'-Chloroflavone] | 0.66 µM | > 5000 | – | – | 0.02 µM | 0.016 µM | > 78 µM | – | – |
| COc1ccccc1/C=C/C(=O)c1ccccc1O [2'-Hydroxy-2-methoxychalcone] | 1.8 µM | 55 | 0.31 µM | 17 µM | – | – | – | – | – |
| O=c1cc(-c2ccccc2)oc2c1ccc1ccccc12 [a-naphthoflavone, α-naphthoflavone, reference compound] | – | – | – | – | – | – | – | 0.09 µM | – |
| COc1ccccc1C1CC(=O)c2ccccc2O1 (centres unmarked) [2'-Methoxyflavanone] | 6.9 µM | > 125 | 0.63 µM | > 79 µM | – | – | – | – | – |
| COc1cccc(OC)c1/C=C/C(=O)c1ccccc1O [2'-Hydroxy-2,6-dimethoxychalcone] | 3.7 µM | 26 | 0.53 µM | 14 µM | 0.54 µM | – | – | – | – |
| O=C1CC(c2cccc3ccccc23)Oc2ccccc21 (centres unmarked) | 8.6 µM | 24 | 1.8 µM | 43 µM | – | – | – | – | – |
| O=c1cc(-c2ccc(F)cc2)oc2ccccc12 [4'-Fluoroflavone] | 32 µM | > 24 | 3.4 µM | > 83 µM | – | – | – | – | – |
| Cc1ccccc1C1CC(=O)c2ccccc2O1 (centres unmarked) [2'-Methylflavanone] | 6.8 µM | 81 | 1 µM | 81 µM | 1.00 µM | – | – | – | – |
| O=c1cc(-c2cccc(Cl)c2)oc2ccccc12 [3'-Chloroflavone] | toxic | > 40 | – | – | < 0.58 µM | – | 23 µM | – | 0.27 µM |
| Cc1ccccc1/C=C/C(=O)c1ccccc1O [2'-Hydroxy-2-methylchalcone] | 9.0 µM | 54 | 0.67 µM | 36 µM | – | – | – | – | – |
| O=c1cc(-c2ccc(C(F)(F)F)cc2)oc2ccccc12 [4'-Trifluoromethylflavone] | 0.1 µM | 3000 | 0.03 µM | 90 µM | – | – | – | – | – |
| O=C(/C=C/c1ccccc1)c1ccccc1 [Chalcone, reference compound] | – | – | – | 33 µM | – | – | – | – | – |
| O=C1CC(c2ccc(Br)cc2)Oc2ccccc21 (centres unmarked) [4'-Bromoflavanone] | 11 µM | 27 | 2.3 µM | 63 µM | – | – | – | – | – |
